# Source: article PMC10518255, “A first-in-class pan-lysyl oxidase inhibitor impairs stromal remodeling and enhances gemcitabine response and survival in pancreatic cancer” (Nature Cancer, 2023)
# “And” between values parts separate entries of the source, which are not always exact repeats. Identical values can stand only once.
# Legend:
# [1] = molecular target: T1, LOXL2 (Homo sapiens, UniProt Q9Y4K0); assay: Lysyl oxidase enzymatic activity, fluorescence-based assay, IC50; type: biochemical
# T1 sequence (Q9Y4K0 26-774): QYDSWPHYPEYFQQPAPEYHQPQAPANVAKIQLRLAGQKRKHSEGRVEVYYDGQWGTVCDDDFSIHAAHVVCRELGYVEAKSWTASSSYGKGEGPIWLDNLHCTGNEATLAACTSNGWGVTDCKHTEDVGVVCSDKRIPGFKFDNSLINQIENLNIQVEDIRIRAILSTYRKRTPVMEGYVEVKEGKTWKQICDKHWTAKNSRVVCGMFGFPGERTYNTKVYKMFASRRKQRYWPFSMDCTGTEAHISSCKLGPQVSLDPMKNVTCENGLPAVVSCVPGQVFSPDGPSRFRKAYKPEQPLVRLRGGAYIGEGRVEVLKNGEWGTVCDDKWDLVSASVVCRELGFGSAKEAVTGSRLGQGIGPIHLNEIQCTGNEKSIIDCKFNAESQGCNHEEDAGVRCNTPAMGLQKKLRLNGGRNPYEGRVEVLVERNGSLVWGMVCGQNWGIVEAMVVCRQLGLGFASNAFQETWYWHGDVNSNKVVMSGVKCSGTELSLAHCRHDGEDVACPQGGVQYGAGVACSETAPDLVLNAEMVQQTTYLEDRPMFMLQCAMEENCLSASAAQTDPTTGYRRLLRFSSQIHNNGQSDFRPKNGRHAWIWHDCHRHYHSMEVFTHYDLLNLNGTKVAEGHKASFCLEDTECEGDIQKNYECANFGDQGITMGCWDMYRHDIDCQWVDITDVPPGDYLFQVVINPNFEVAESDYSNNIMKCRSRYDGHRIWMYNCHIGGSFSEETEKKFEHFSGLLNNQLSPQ
# From the text: (§1) Data are presented as mean ± s.d. […] Data presented as mean ± s.d. […] Source data TEXT PRINTED IN THE PICTURE: (b) PXS-5505: Recombinant DAO IC50 (nM): >30,000; Recombinant SSAO/VAP1 IC50 (nM): >30,000; Recombinant MAO-A IC50 (nM): >30,000; Recombinant MAO-B IC50 (nM): >30,000 | (f) PXS-5505: Fibroblast LOX IC50 (nM): 4,930; Recombinant LOXL-1 IC50 (nM): 1,590; Recombinant LOXL-2 IC50 (nM): 570; Recombinant LOXL-3 IC50 (nM): 1,800; Recombinant LOXL-4 IC50 (nM): 190
# (§2) In characterizing PXS-5505, the half-maximum inhibitory concentration (IC50) values for each of the lysyl oxidase family members were determined by measuring enzymatic activity using a fluorescence-based assay.
# (§3) Data presented as mean values +/− SD. f. […] Data presented as mean values +/− SD. […] Data presented as mean values +/− SD. […] Data presented as mean values +/− SD. Ordinary one-way ANOVA for multiple comparison test performed. Source data
# [2] = molecular target: T2, Recombinant LOXL-3 (Homo sapiens, UniProt P58215); assay: as above; type: biochemical
# T2 sequence (P58215 26-753): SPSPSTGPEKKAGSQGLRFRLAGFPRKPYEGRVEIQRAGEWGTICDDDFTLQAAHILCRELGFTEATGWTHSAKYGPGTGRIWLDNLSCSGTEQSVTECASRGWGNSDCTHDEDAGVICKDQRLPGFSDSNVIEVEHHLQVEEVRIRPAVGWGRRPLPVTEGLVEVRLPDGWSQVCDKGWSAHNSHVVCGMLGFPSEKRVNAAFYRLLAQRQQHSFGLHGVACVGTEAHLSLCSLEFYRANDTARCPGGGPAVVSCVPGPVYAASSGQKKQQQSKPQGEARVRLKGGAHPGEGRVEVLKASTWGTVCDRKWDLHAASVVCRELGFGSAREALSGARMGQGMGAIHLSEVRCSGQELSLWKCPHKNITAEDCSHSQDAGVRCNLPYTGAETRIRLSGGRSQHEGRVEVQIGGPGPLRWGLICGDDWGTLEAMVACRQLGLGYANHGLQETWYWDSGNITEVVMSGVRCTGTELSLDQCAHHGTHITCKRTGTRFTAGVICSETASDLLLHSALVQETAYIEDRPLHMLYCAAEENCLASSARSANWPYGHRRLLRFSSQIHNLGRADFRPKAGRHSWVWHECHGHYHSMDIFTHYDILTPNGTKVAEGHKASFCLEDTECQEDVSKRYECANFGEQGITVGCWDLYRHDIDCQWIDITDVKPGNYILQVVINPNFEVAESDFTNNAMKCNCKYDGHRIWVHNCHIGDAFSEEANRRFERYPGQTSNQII
# From the text: as §1, §2, §3
# [3] = log(Concentration) -4.52288, replicates, 30 µM
# [4] = log(Concentration) -5, replicates, 10 µM
# [5] = log(Concentration) -5.47712, replicates, 3.333 µM
# [6] = log(Concentration) -5.95424, replicates, 1.111 µM
# [7] = log(Concentration) -6.43136, replicates, 0.3704 µM
# [8] = log(Concentration) -6.90849, replicates, 0.1235 µM
# [9] = log(Concentration) -7.38561, replicates, 0.04115 µM
# [10] = log(Concentration) -7.86273, replicates, 0.01372 µM
# [11] = log(Concentration) -8.33985, replicates, 0.004572 µM
# [12] = log(Concentration) -8.81697, replicates, 0.001524 µM
# [13] = log(Concentration) -9.29409, replicates, 0.000508 µM
compound,measurement,setting,value
"Cl.Cl.NC/C=C(\F)CS(=O)(=O)c1cccc2cccnc12.O [PXS-5505, (Z)-3-fluoro-4-(quinolin-8-ylsulfonyl)but-2-en-1-amine dihydrochloride monohydrate]",IC50,[1],0.57 µM
same,"LOXL2 activity, IC50 determination curve",[1]; [3],0.9304 and 1.355 and 0.47 and 0.4711 and 0.6366 and 0.3339 and 2.414 and 1.859 and 1.553 and 2.478
same,"LOXL2 activity, IC50 determination curve",[1]; [4],0.791 and 0.552 and 3.171 and 2.146 and 2.6 and 2.324 and 4.194 and 15.0185 and 14.1707 and 8.37
same,"LOXL2 activity, IC50 determination curve",[1]; [5],9.121 and 8.824 and 12.3933 and 6.2776 and 9.388 and 8.093 and 13.2114 and 39.9206 and 33.7785 and 20.6899
same,"LOXL2 activity, IC50 determination curve",[1]; [6],20.2389 and 25.6139 and 36.0073 and 28.0488 and 26.7357 and 24.6346 and 38.4827 and 46.4776 and 45.1428 and 35.5222
same,"LOXL2 activity, IC50 determination curve",[1]; [7],49.7826 and 57.6495 and 70.9317 and 50.7979 and 55.1496 and 52.5589 and 67.2849 and 60.9084 and 60.7641 and 53.7886
same,"LOXL2 activity, IC50 determination curve",[1]; [8],78.7223 and 82.1964 and 89.3928 and 77.9843 and 81.0351 and 77.3849 and 88.1863 and 70.6401 and 64.9941 and 65.916
same,"LOXL2 activity, IC50 determination curve",[1]; [9],84.6124 and 93.105 and 97.9338
same,"LOXL2 activity, IC50 determination curve",[1]; [10],94.5455 and 97.658 and 97.7862 and 96.4122 and 96.1969 and 92.4844 and 101.479 and 86.0269 and 80.2817 and 84.4595
same,"LOXL2 activity, IC50 determination curve",[1]; [11],93.002 and 104.67 and 103.129 and 98.6809 and 97.1184 and 102.587 and 94.1262 and 87.5963 and 94.8578
same,"LOXL2 activity, IC50 determination curve",[1]; [12],103.323 and 104.142 and 98.8815 and 101.169 and 98.4227 and 104.725 and 98.8974 and 89.6166 and 94.7795
same,"LOXL2 activity, IC50 determination curve",[1]; [13],94.0836 and 101.708 and 97.4085 and 100.105 and 99.6157 and 105.819 and 98.717 and 92.3043 and 96.8459
same,activity at 0.004572 µM,"[1]; read-out: LOXL2 activity, IC50 determination curve, log(Concentration) -8.33985, replicates",91.8%
same,activity at 0.001524 µM,"[1]; read-out: LOXL2 activity, IC50 determination curve, log(Concentration) -8.81697, replicates",95.1%
same,activity at 0.000508 µM,"[1]; read-out: LOXL2 activity, IC50 determination curve, log(Concentration) -9.29409, replicates",92%
same,IC50,[2],1.8 µM
same,"LOXL3 activity, IC50 determination curve",[2]; [3],0.995 and -0.1448 and -2.1827
same,"LOXL3 activity, IC50 determination curve",[2]; [4],5.702
same,"LOXL3 activity, IC50 determination curve",[2]; [5],36.152 and 26.2163
same,"LOXL3 activity, IC50 determination curve",[2]; [6],67.7528 and 54.7261
same,"LOXL3 activity, IC50 determination curve",[2]; [7],85.8582 and 75.7761
same,"LOXL3 activity, IC50 determination curve",[2]; [8],94.2403 and 83.1634
same,"LOXL3 activity, IC50 determination curve",[2]; [9],97.9203 and 84.9527
same,"LOXL3 activity, IC50 determination curve",[2]; [10],99.768 and 85.7835
same,"LOXL3 activity, IC50 determination curve",[2]; [11],101.158 and 89.5879
same,"LOXL3 activity, IC50 determination curve",[2]; [12],100.452 and 87.3896
same,"LOXL3 activity, IC50 determination curve",[2]; [13],100.732 and 88.8381
same,activity at 10 µM,"[2]; read-out: LOXL3 activity, IC50 determination curve, log(Concentration) -5, replicates",7.74%
same,activity at 3.333 µM,"[2]; read-out: LOXL3 activity, IC50 determination curve, log(Concentration) -5.47712, replicates",30.5%
same,activity at 1.111 µM,"[2]; read-out: LOXL3 activity, IC50 determination curve, log(Concentration) -5.95424, replicates",62.6%
same,activity at 0.3704 µM,"[2]; read-out: LOXL3 activity, IC50 determination curve, log(Concentration) -6.43136, replicates",82.5%
same,activity at 0.1235 µM,"[2]; read-out: LOXL3 activity, IC50 determination curve, log(Concentration) -6.90849, replicates",98.2%
same,activity at 0.04115 µM,"[2]; read-out: LOXL3 activity, IC50 determination curve, log(Concentration) -7.38561, replicates",96.9%
same,activity at 0.01372 µM,"[2]; read-out: LOXL3 activity, IC50 determination curve, log(Concentration) -7.86273, replicates",96.8%
same,activity at 0.004572 µM,"[2]; read-out: LOXL3 activity, IC50 determination curve, log(Concentration) -8.33985, replicates",99.1%
same,activity at 0.001524 µM,"[2]; read-out: LOXL3 activity, IC50 determination curve, log(Concentration) -8.81697, replicates",100%
same,activity at 0.000508 µM,"[2]; read-out: LOXL3 activity, IC50 determination curve, log(Concentration) -9.29409, replicates",99.7%
